Test results from paper PMC1968247 (British Journal of Cancer, 1993).
Read-outs that look alike come from different tables or passages of the source.

Assays:
MAC 13 tumours = assay: Anti-tumour activity against MAC 13 (tumour weight); assay type: in vivo, NMRI mice; settings: 30 mg kg-1 ip
Description: (§1) Br. J. Cancer (1993), 67, 441 446 t? […] Bibby Clinical Oncology Unit, University of Bradford, West Yorkshire, BD7 JDP, UK. […] In vivo anti-tumour activity was examined against three transplantable adenocarcinomas of the mouse colon and in vivo bone marrow toxicity was assessed using a spleen colony forming unit assay. The pharmacokinetic behaviour of the drug in vivo and drug stability in vitro was analysed by gas chromatography with electron capture detection. […] Clinical responses to cytotoxic agents have been largely restricted to the haematological malignancies while the majority of human solid tumours have remained refractory to chemotherapy (Marsoni et al., 1987). […] However, their clinical usefulness has been limited by non-selective host toxicity, particularly myelosuppres- sion. The chloroethylnitrosoureas decompose spontaneously in aqueous solution to generate reactive intermediates that are capable of alkylating and carbamoylating nucleophilic targets (Cheng et al., 1972). Alkylation reactions consist of chloroethylations and hydroxyethylations of DNA (Tong et al., 1982). Chloroethylation of 06-guanine with subsequent cross-link formation is considered to be the most important cytotoxic reaction (Lown et al., 1978) while hydroxyethyla- tion reactions are thought to be responsible for their mutagenic and carcinogenic effects (Pelfrene et al., 1976; Swenson et al., 1979). […] In the search for other types of compound that would chloroethylate DNA, a series of 2-haloethylsulphonates was synthesised (Shealy et al., 1983). […] Recently, the NCI has introduced a new disease-orientated screening programme based on the assessment of the in vitro cytotoxicity of a panel of cell lines representing the common clinical forms of human cancers using a colorimetric assay (Boyd, 1989). […] One reason for this discrepancy is that the in vitro tests ignore the potential role played by the pharmacokinetic behaviour and bioavailability of a drug in determining tumour responses in vivo. […] It has been used extensively as part of the pre-clinical evaluation of new anti-cancer agents within the Screening and Pharmacology Group of the EORTC (Bibby et al., 1988b). The feasibility of performing minimal toxicity studies in conjunction with anti-tumour studies has been described (Bibby et al., 1988b). […] Correspondence: A.M. Matthew. Received 6 December 1991; and in revised form 13 October 1992. Br. J. Cancer (1993), 67, 441-446 '?" Macmillan Press Ltd., 1993 442 A.M. MATIHEW et al. ethylating agents with improved therapeutic indices. The assessment of stem cell survival has been recommended to study irreversible cytotoxic bone marrow injury (Schofield, 1986) and this can be performed readily in mice using a spleen colony forming unit assay. […] In vitro activity was assessed against a panel of established murine and human tumour cell lines while in vivo anti-tumour responses were evaluated against an ascitic tumour, MAC 15A, and two solid subcutaneous (sc) tumours, MAC 13 and MAC 26. MAC 13 is relatively nitrosourea-sensitive due to a low level of the repair enzyme 06-alkylguanine-DNA alkyltransferase while MAC 26 is relatively nitrosourea-resistant due to a high repair enzyme level (Lunn et al., 1989). In vivo bone marrow toxicity and pharmacokinetic studies and in vitro drug stability studies were performed in conjunction with the anti-tumour studies. […] Chlorozotocin was dissolved in 10% dimethylsulphoxide (DMSO)/arachis oil. Drug solutions were prepared at an appropriate concentration for the desired in vivo dose to be administered in 0.1 ml per 10 g body weight by intra- peritoneal (ip) or intravenous (iv) injection and for the desired final concentration in vitro to be achieved upon a 1 in 10 dilution. […] Chemosensitivity testing In vitro chemosensitivity was assessed using a modified micro-tetrazolium (MTT) assay (Twenty- man & Luscombe, 1987).

[1] = Maximum tolerated dose, full dose range to the point of toxicity; settings: ip, mice
Description: Br. J. Cancer (1993), 67, 441 446 t? […] Bibby Clinical Oncology Unit, University of Bradford, West Yorkshire, BD7 JDP, UK. […] In vivo anti-tumour activity was examined against three transplantable adenocarcinomas of the mouse colon and in vivo bone marrow toxicity was assessed using a spleen colony forming unit assay. The pharmacokinetic behaviour of the drug in vivo and drug stability in vitro was analysed by gas chromatography with electron capture detection. […] Clinical responses to cytotoxic agents have been largely restricted to the haematological malignancies while the majority of human solid tumours have remained refractory to chemotherapy (Marsoni et al., 1987). […] However, their clinical usefulness has been limited by non-selective host toxicity, particularly myelosuppres- sion. The chloroethylnitrosoureas decompose spontaneously in aqueous solution to generate reactive intermediates that are capable of alkylating and carbamoylating nucleophilic targets (Cheng et al., 1972). Alkylation reactions consist of chloroethylations and hydroxyethylations of DNA (Tong et al., 1982). Chloroethylation of 06-guanine with subsequent cross-link formation is considered to be the most important cytotoxic reaction (Lown et al., 1978) while hydroxyethyla- tion reactions are thought to be responsible for their mutagenic and carcinogenic effects (Pelfrene et al., 1976; Swenson et al., 1979). […] The assessment of stem cell survival has been recommended to study irreversible cytotoxic bone marrow injury (Schofield, 1986) and this can be performed readily in mice using a spleen colony forming unit assay. […] In vitro activity was assessed against a panel of established murine and human tumour cell lines while in vivo anti-tumour responses were evaluated against an ascitic tumour, MAC 15A, and two solid subcutaneous (sc) tumours, MAC 13 and MAC 26. […] Chemosensitivity testing In vitro chemosensitivity was assessed using a modified micro-tetrazolium (MTT) assay (Twenty- man & Luscombe, 1987).

bone marrow = settings: 24 h
Description: as §1

MAC 26 tumours = settings: for Survivors: MAC 26 bearers
Description: as §1

MAC 15A ascites tumour = assay: Anti-tumour activity against MAC 15A (median survival time); assay type: in vivo, NMRI mice; settings: 30 mg kg-1 ip
Description: as §1

In the case of `CN(C)S(=O)(=O)CCNC(=O)N(CCCl)N=O` [TCNU, 1-(2-chloroethyl)-3-[2-(dimethylaminosulphonyl)ethyl]-I -nitro-sourea], the “% Tumour weight inhibition” value (MAC 13 tumours) is reported as 91.3%, the Maximum tolerated dose [1] is reported as 30 mg kg-' and the Survival fraction (bone marrow; 5 mg kg-1 ip) is reported as 0.61. For the same compound, the Survival fraction (bone marrow; 10 mg kg-1 ip) was 0.20, the Survival fraction (bone marrow; 30 mg kg-1 ip) was 0 and the No. colonies observed (bone marrow; 30 mg kg-1 ip, mean, SD, n = 6) was 0. For the same compound, the Tumour growth delay (MAC 26 tumours; MAC 26, 30 mg kg-1 ip) was 11.6 days, the Survivors (MAC 26 tumours; 30 mg kg-1 ip) was 10/10 and the Survivors (MAC 26 tumours; 50 mg kg-1 ip) was 0/5. The T/C% (MAC 15A ascites tumour) was 200%.
